Experimental data reported in the supplement of paper PMC11150407.

Assays:
Assay in all cases: area under dose-response viability curve (log dose) (AUC (arbitrary)); higher = less sensitive
Details in all cases: 72 h
AR-42 = compound: CC(C)[C@H](C(=O)Nc1ccc(C(=O)NO)cc1)c1ccccc1 [AR-42]
Experimental: (§1)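 Primary AML blasts from patients (3q26 EVI1-high and other AML) were treated for 72 h with a dose series of each drug. Viability was measured with an ATP-based CellTiter-Glo assay. The area under the curve of the log-transformed dose-response data was computed in GraphPad Prism; a lower AUC means greater sensitivity.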

Vincristine = compound: CC[C@]1(O)C[C@H]2CN(CCc3c([nH]c4ccccc34)[C@@](C(=O)OC)(c3cc4c(cc3OC)N(C=O)[C@H]3[C@@](O)(C(=O)OC)[C@H](OC(C)=O)[C@]5(CC)C=CCN6CC[C@]43[C@@H]65)C2)C1 [Vincristine]
Experimental: as §1

Methotrexate = compound: CN(Cc1cnc2nc(N)nc(N)c2n1)c1ccc(C(=O)N[C@@H](CCC(=O)O)C(=O)O)cc1 [Methotrexate]
Experimental: as §1

Daunorubicine = compound: COc1cccc2c1C(=O)c1c(O)c3c(c(O)c1C2=O)C[C@@](O)(C(C)=O)C[C@@H]3O[C@H]1C[C@H](N)[C@H](O)[C@H](C)O1 [Daunorubicine]
Experimental: as §1

Entinostat = compound: Nc1ccccc1NC(=O)c1ccc(CNC(=O)OCc2cccnc2)cc1 [Entinostat]
Experimental: as §1

Belinostat = compound: O=C(/C=C/c1cccc(S(=O)(=O)Nc2ccccc2)c1)NO [Belinostat]
Experimental: as §1

## PR#035 (EVI1 status: EVI1Low)
AR-42
  area under dose-response viability curve: 145
Vincristine
  area under dose-response viability curve: 119
Methotrexate
  area under dose-response viability curve: 198
Daunorubicine
  area under dose-response viability curve: 64.4
Entinostat
  area under dose-response viability curve: 175
Belinostat
  area under dose-response viability curve: 168

## PR#036 (EVI1 status: EVI1Low)
AR-42
  area under dose-response viability curve: 130
Vincristine
  area under dose-response viability curve: 123
Methotrexate
  area under dose-response viability curve: 251
Daunorubicine
  area under dose-response viability curve: 48.2
Entinostat
  area under dose-response viability curve: 172
Belinostat
  area under dose-response viability curve: 150

## PR#037 (EVI1 status: EVI1Low)
AR-42
  area under dose-response viability curve: 126
Vincristine
  area under dose-response viability curve: 113
Methotrexate
  area under dose-response viability curve: 213
Daunorubicine
  area under dose-response viability curve: 83.7
Entinostat
  area under dose-response viability curve: 106
Belinostat
  area under dose-response viability curve: 127

## PR#038 (EVI1 status: EVI1Low)
AR-42
  area under dose-response viability curve: 141
Vincristine
  area under dose-response viability curve: 187
Methotrexate
  area under dose-response viability curve: 209
Daunorubicine
  area under dose-response viability curve: 86
Entinostat
  area under dose-response viability curve: 143
Belinostat
  area under dose-response viability curve: 167

## PR#039 (EVI1 status: EVI1Low)
AR-42
  area under dose-response viability curve: 96
Vincristine
  area under dose-response viability curve: 95.7
Methotrexate
  area under dose-response viability curve: 201
Daunorubicine
  area under dose-response viability curve: 24.5
Entinostat
  area under dose-response viability curve: 125
Belinostat
  area under dose-response viability curve: 124
